Assay results as given in patent publication US20230257385A1, “SALT AND SOLID FORMS OF TABERNANTHALOG” (priority 2021, published 2023).
“Also recorded” adds a separate entry of the source. Structures can show the parent of a compound that is named as a salt.

Tests used:
[1] = Solubility determinations in SIF buffers FaSSIF, FeSSIF, FaSSGF (Example 8, Experiment 5); conditions: for solubility at 24 h: 37 °C, thermodynamic from solid; for fate of the suspended phase in FaSSGF (XRPD, 1H NMR): up to 24 h
How it was run: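 Suspensions in FaSSIF, FeSSIF or FaSSGF held at 37° C for 24 h, sampled at set time points and centrifuged. Pellets checked by XRPD, wet and dried, for form change.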

[2] = Stability panel of salts, open vial / double-bagged vial, t=5 d and 10 d; assay type: physicochemical; conditions: storage conditions not given
Text: FIG. 797 depicts the overlay of, from top to bottom, XRPD of Experiment 1-Sample A2 (Form A), Experiment 10-Sample A1 (5 days, open vial Pattern #2), Experiment 10-Sample A2 (10 days, open vial, Pattern #2), Experiment 10-Sample B1 (5 days, double-bagged vial, Form A) and Experiment 10-Sample B2 (10 days, double-bagged vial, Pattern #2).

With `COc1ccc2c3c([nH]c2c1)CCN(C)CC3` [tabernanthalog sorbate salt] the “Solubility in SIF buffers: FeSSIF” value ([1]; 37° C. up to 1 h) was “Insoluble”, the “Solubility in SIF buffers: FaSSGF” value ([1]; 37° C. up to 24 h) was “Insoluble” and the solubility at 24 h ([1]; pH 5, fessif) was over 30 mg/mL. The solubility at 24 h ([1]; pH 6.5, fassif) was over 30 mg/mL, the “solubility in the SIF buffers (in words)” value ([1]; FaSSIF, FeSSIF, FaSSGF) was “highly soluble in the SIF buffers examined; also recorded: highly soluble in the SIF buffers used, apart from FaSSGF” and the “behaviour at 30 mg/ml in SIF buffers” value ([1]; FaSSIF, FeSSIF, FaSSGF, 37° C., 24 h) was “only remained suspended in FaSSGF”. The “solubility in the SIF buffers (in words)” value ([1]; FaSSIF, FeSSIF, FaSSGF, listed as Tabernanthalog sorbate salt (Form A)) was “readily soluble in FaSSIF and FeSSIF during 24 h”, the “Tabernanthalog RRT = 1.00 (trended HPLC data, chemical purity)” value ([1]; tabernanthalog sorbate salt, input before FaSSGF) was 99.41 and the “fate of the suspended phase in FaSSGF (XRPD, 1H NMR)” value ([1]; 37° C.) was “supported disproportionation”. For the same molecule, the “fate of the suspended phase in FaSSGF (XRPD, 1H NMR)” value ([1]; 37° C., listed as Tabernanthalog sorbate salt (Form A)) was “only exhibited disproportionation after 24 h in FaSSGF”, the “CP after stability storage” value ([2]; end value (minimal reduction in CP)) was 99.70 % area and the “CP before stability storage” value ([2]; starting value) was 99.76 % area.
